Measured values taken from the SangsterLogP compilation.

Assay: method code SF-AS, from DOI: 10.1248/cpb.24.61
Details: pH 7.4

Row | SMILES | logD
1 | Cc1c(C(=O)CN(C)C)c(=O)n(-c2ccccc2)n1C | -0.95
2 | Cc1c(N(C)C(C)C(=O)N(C)C)c(=O)n(-c2ccccc2)n1C (configuration not stated) | 0.69
3 | Cc1c(NC(C)C(=O)N(C)C)c(=O)n(-c2ccccc2)n1C (configuration not stated) | 0.35

Further lines, results first:

Row | logD | SMILES
4 | -0.37 | Cc1c(NC(=O)CN(C)C)c(=O)n(-c2ccccc2)n1C
5 | -0.92 | Cc1c(NC(N)=O)c(=O)n(-c2ccccc2)n1C
6 | -0.24 | CCC(C(=O)c1c(C)n(C)n(-c2ccccc2)c1=O)N(C)C (configuration not stated)
7 | -0.78 | Cc1c(C(=O)C(C)N(C)C)c(=O)n(-c2ccccc2)n1C (configuration not stated)
